Reference: US20020106342A1, “Methods for treating atopic disorders” (priority 2000, published 2002)

System: skin fungal conditions
Test: Patients with skin fungal conditions treated with griseovulvin and an appropriate antibiotic, emollients ceased (Example 6)
Format: in vivo, human
Description: Most patients received an antihistamine for the first ten days to control itch. The patients ceased the use of lotions and other emollients, as well as the use of local and systemic corticosteroids.

COC1=CC(=O)C[C@@H](C)[C@]12Oc1c(Cl)c(OC)cc(OC)c1C2=O [griseovulvin]
Appearance of "dry skin" (Patient A, after 35 days of treatment): cleared up considerably | Fungus on skin (Patient B, one week later): improved dramatically | Fungus on skin (Patient C, after treatment): significantly improved | Fungus growth on back of neck (Patient D, after seven weeks): significantly diminished | Fungal condition of skin (Patient F, after seven weeks of treatment): improving and peeling off | Fungal infection tinea barbae (Patient G, after seven weeks): significantly cleared | Skin with hair follicles infected by fungus (Patient H, after nine weeks of treatment): dramatically improved
